Results: patent US10577357B2, “Inhibitors of LDLR-PCSK9 protein-protein interaction and methods of their use” (The Texas A&M University System, priority 2016, dated 2020)

Target: T1, PCSK9 (Homo sapiens, UniProt Q8NBP7)
T1 construct: host or cells: exogenous PCSK9 protein added to HepG2 cells
Experiment: LDL-uptake assay (BODIPY-LDL) in HepG2 cells with added PCSK9
Type: cell-based
Details: inhibitors 50 μM preincubated with 10 μg/mL PCSK9 for 30 min, BODIPY-LDL 10 μg/mL, quintuplicate
Protocol: LDL-uptake assay was performed in quintuplicate following a published procedure with some modifications. HepG2 cells were seeded into 96-well plate at a density of 3×10^4 cells/well in DMEM with 10% FBS medium (Sigma-Aldrich). After a period of 24 h, the medium was aspirated and cells were washed with PBS twice. Cells were treated with 10% lipoprotein-deficient serum (Gemini) in DMEM and incubated for another 24 h. After washing cells with PBS twice, cells were incubated 2 h with either 100 μL of Pep2-8 (30 μM), inhibitors at various concentrations (50 μM), or negative control (DMSO), which were preincubated with 10 μg/mL PCSK9 in 10% lipoprotein-deficient DMEM at 0.5% DMSO level for 30 min prior. A positive control was also performed, in a similar fashion but in the absence of PCSK9. BODIPY-LDL (10 μg/mL, Invitrogen) was added to each well and cells were incubated for another 3 h. Cells were washed three times with PBS, and fluorescent intensity was measured on Synergy H4 plate reader (Biotek) with excitation and emission wavelength at 488 and 520 nm, respectively.

T1 sequence (Q8NBP7 153-692): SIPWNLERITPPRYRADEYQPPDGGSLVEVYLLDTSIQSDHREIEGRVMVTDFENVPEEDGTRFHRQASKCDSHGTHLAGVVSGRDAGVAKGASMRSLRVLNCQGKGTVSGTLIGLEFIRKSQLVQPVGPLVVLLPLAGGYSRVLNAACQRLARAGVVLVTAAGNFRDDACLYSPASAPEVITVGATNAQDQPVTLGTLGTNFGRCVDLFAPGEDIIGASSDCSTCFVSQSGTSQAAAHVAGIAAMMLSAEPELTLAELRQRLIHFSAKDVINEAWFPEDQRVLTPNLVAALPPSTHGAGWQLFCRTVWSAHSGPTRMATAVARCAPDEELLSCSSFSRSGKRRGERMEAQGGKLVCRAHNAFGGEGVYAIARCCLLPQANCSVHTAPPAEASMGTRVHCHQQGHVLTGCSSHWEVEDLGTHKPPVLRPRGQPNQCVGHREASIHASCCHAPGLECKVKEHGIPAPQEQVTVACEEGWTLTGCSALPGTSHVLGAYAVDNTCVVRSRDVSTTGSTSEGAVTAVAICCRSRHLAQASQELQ
T1 sequence (Q8NBP7 31-152 partner limits assumed): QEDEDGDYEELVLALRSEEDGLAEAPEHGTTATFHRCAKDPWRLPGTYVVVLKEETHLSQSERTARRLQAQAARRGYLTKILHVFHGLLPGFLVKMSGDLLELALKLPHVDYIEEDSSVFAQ

SMILES | activity at 50 µM [%]
CC(C)C[C@H](C(=O)N1CCN([C@@H](CC(N)=O)C(=O)N[C@@H](CCCNC(=N)N)C(=O)NC2CCOC2=O)CC1)N1C(=O)N[C@@H](CC(=O)O)C1=O (stereo partly shown) [KB2234] | 8.7 ± 5.9
CC(C)C[C@H](C(=O)N1CCN([C@@H](CC(N)=O)C(=O)N[C@@H](CCCNC(=N)N)C(=O)NCCC(=O)O)CC1)N1C(=O)N[C@@H](CC(=O)O)C1=O [KB2274] | 13.5 ± 4.3
N=C(N)NCCC[C@@H](NC(=O)[C@H](CC(=O)O)N1CCN(C(=O)[C@H](CC(N)=O)N2C(=O)N[C@@H](CCC(N)=O)C2=O)CC1)C(=O)NCCC(=O)O [KB2275] | 8.6 ± 1.5
CC(C)C[C@@H](C(=O)N[C@H](CCCNC(=N)N)C(=O)NCCC(=O)O)N1CCN(C(=O)[C@H](CS)N2C(=O)N[C@H](CC(N)=O)C2=O)CC1 [KB2276] | 19 ± 4.7
